Measured values: US10774390B2, “Methods and compositions for modulating PrfA mediated virulence gene activation in Listeria spp” (The Regents of the University of California, priority 2015, dated 2020)

Tests used:
PrfA = PrfA activation in L. monocytogenes strains expressing TagRFP from the actA promoter, grown in media with or without reducing agents; format: cell-based, Listeria monocytogenes; details: for activation of PrfA in vitro: L. monocytogenes grown in chemically defined media, excess of exogenously added reducing agent; for Optimal concentration for prfA activation: reducing agent added to chemically defined media (Table 1); for induction of ActA (FIG. 1): chemically defined media, fluorescent reporter driven by actA promoter
Experimental: Experiments were conducted to identify any additional factors required for PrfA activation.
Three different strains were employed: WT 10403S (Lauer et al., J. Bacteriol. (2002) 184:4177-4186; ΔprfA which was an in frame deletion in prfA made by allelic exchange; and PrfA* which has a G145S mutation. The strains were engineered to express TagRFP from the actA promoter (e.g., as reported in Waite et al., PLoS Pathog. (2011)7:e1001326. A chemically defined media detailed in Table 1 was prepared.
Next, a number of reducing agents listed in Table 2 were added to the media.
The three strains were grown in the chemically defined media with or without the addition of the noted reducing agents.

Listeria monocytogenes = assay: Virulence of strains grown with or without reducing agent: bacterial burdens in organs of intravenously infected mice; format: in vivo, CD-1 mice
Experimental: FIG. 2. In this experiment bacteria were grown in rich media (BHI) or Listeria synthetic media (LSM) with or without reducing agent (TCEP) and injected into mice IV. The data are CFUs at […] in liver and spleens. WT bacteria and a PrfA* strain that has constitutively active PrfA were used.
Prior to infection, bacterial strains were grown to stationary phase overnight in Listeria Synthetic Media (LSM) at 37° C., then diluted into either BHI or LSM, with or without reducing agent (2 mM TCEP) and grown at 37° C. with shaking until the OD600 was approximately 0.5. Cultures were re-suspended in 1× phosphate-buffered saline (PBS) and used to intravenously infect female CD-1 mice between 6 and 8 weeks of age with a final inoculum of 10^5 bacteria. At 48 hrs post-infection, mice were sacrificed and organs collected. Bacterial burdens were enumerated by plating organ homogenates on LB plates and incubating overnight.
WT bacteria and a PrfA* strain that has constitutively active PrfA were used.

O[C@H](CS)[C@H](O)CS (racemic) [dithiothreitol (DTT), dithiothreitol]
activation of PrfA in vitro (PrfA): recapitulated
Optimal concentration for prfA activation (PrfA): 2 mM

OCCS [2-mercaptoethanol (BME), 2-mercaptoethanol]
activation of PrfA in vitro (PrfA): recapitulated
Optimal concentration for prfA activation (PrfA): 2 mM

N[C@@H](CCC(=O)N[C@@H](CS)C(=O)NCC(=O)O)C(=O)O [Glutathione (reduced), Glutathione]
activation of PrfA in vitro (PrfA): sufficient to stimulate activation of PrfA
induction of ActA (FIG. 1) (PrfA): induction of ActA
PrfA activation (PrfA; exogenous glutathione, standard complex broth culture): insufficient to stimulate PrfA activation
Optimal concentration for prfA activation (PrfA): 10 mM

N[C@@H](CS)C(=O)O [L-Cysteine]
induction of ActA (FIG. 1) (PrfA): induction of ActA
Optimal concentration for prfA activation (PrfA): 10 mM

O=C(O)CCP(CCC(=O)O)CCC(=O)O [tris(2-carboxyethyl)phosphine (TCEP), tris(2-carboxyethyl)phosphine]
activation of PrfA in vitro (PrfA): recapitulated
induction of ActA (FIG. 1) (PrfA): induction of ActA
Optimal concentration for prfA activation (PrfA): 2 mM
bacteria in the organs (CFU, liver and spleen), fold more (Listeria monocytogenes; bacteria grown in LSM plus 2 mM TCEP, IV, 10^5 bacteria, 48 hrs post-infection): around 50 fold
activation of PrfA-dependent expression, measured by virulence (Listeria monocytogenes; defined medium and TCEP, compared with PrfA* strain): equivalent to that of a PrfA-constituitive mutant
